Laboratory results published in patent US9938322B2, “β-hairpin peptidomimetics” (priority 2013, dated 2018).
*1 amine or outer side, *2 acyl side, *3 side chain or, on linkers, in order; H or OH if unused. Where a SMILES comes first, the peptide text is derived from it. Side-chain parts run from the residue outwards. [ ]: non-standard residue; d: D form. The star is where a group is joined. Tyr(3-F) = N[C@@H](Cc1ccc(O)c(F)c1)C(=O)O; Phe(4-F) = N[C@@H](Cc1ccc(F)cc1)C(=O)O; Pro(3S-OH) = O=C(O)[C@H]1NCC[C@@H]1O; X1 = CC(C)NC[C@H](N[*:1])C(=O)[*:2]; Orn(iPr) = CC(C)NCCC[C@H](N)C(=O)O; Cha = N[C@@H](CC1CCCCC1)C(=O)O; Chg = N[C@H](C(=O)O)C1CCCCC1; Phg = N[C@H](C(=O)O)c1ccccc1; Tle = CC(C)(C)[C@H](N)C(=O)O; dDab = NCC[C@@H](N)C(=O)O; hSer = N[C@@H](CCO)C(=O)O; Orn = NCCC[C@H](N)C(=O)O; Dab = NCC[C@H](N)C(=O)O; Nva = CCC[C@H](N)C(=O)O; Dap = NC[C@H](N)C(=O)O; CO = O=C([*:1])[*:2]; NHiPr = CC(C)N*

test system: human red blood cells (hRBC); test: Hemolysis of human red blood cells; type: cell-based; details: red cells of human, 1 h, 100
How it was run: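 Washed fresh human erythrocytes (20% v/v, about 0.9×10^9 cells/ml final) incubated with peptide at 100 μg/ml for 1 h at 37° C with shaking. Supernatant OD540 read; hemolysis expressed relative to 2.5% Triton X-100 (100%) and PBS with 0.001% acetic acid (0%).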

Row | SMILES | Hemolysis at 100 μg/ml
1 | CC(C)[C@@H]1NC(=O)[C@@H]2CCCN2C(=O)[C@H]2CCCN2C(=O)[C@H](CO)NC(=O)[C@H](C)NC(=O)[C@H](C2CCCCC2)NC(=O)[C@H](CCN)NC(=O)[C@H](Cc2c[nH]c3ccccc23)NC(=O)[C@H](CCN)NC(=O)[C@@H](CCN)NC(=O)[C@H](CCCN)NC(=O)[C@H](CCN)NC(=O)[C@H](Cc2ccc(O)cc2)NC(=O)[C@H](CO)NC1=O [compound 90] (cyclo(VSY[Dab][Orn][dDab][Dab]W[Dab][Chg]AS[dP]P)) | 2%
2 | CC(C)C[C@@H]1NC(=O)[C@@H]2[C@@H](O)CCN2C(=O)[C@H]2CCCN2C(=O)[C@H](CO)NC(=O)[C@H](C)NC(=O)[C@H](Cc2ccc(O)cc2)NC(=O)[C@H](CCN)NC(=O)[C@H](Cc2c[nH]c3ccccc23)NC(=O)[C@H](CCN)NC(=O)[C@@H](CCN)NC(=O)[C@H](CCCN)NC(=O)[C@H](CCN)NC(=O)[C@H](Cc2ccc(O)cc2)NC(=O)[C@H](CO)NC1=O [Ex. 55] (cyclo(LSY[Dab][Orn][dDab][Dab]W[Dab]YAS[dP][Pro(3S-OH)])) | 1%
3 | CCC[C@@H]1NC(=O)[C@@H]2CCCN2C(=O)[C@H]2CCCN2C(=O)[C@H](CO)NC(=O)[C@H](C)NC(=O)[C@H](C(C)(C)C)NC(=O)[C@H](CCN)NC(=O)[C@H](Cc2c[nH]c3ccccc23)NC(=O)[C@H](CCN)NC(=O)[C@@H](CCN)NC(=O)[C@H](CCCN)NC(=O)[C@H](CCN)NC(=O)[C@H](Cc2ccc(O)c(F)c2)NC(=O)[C@H](CO)NC1=O [compound 105] (cyclo([Nva]S[Tyr(3-F)][Dab][Orn][dDab][Dab]W[Dab][Tle]AS[dP]P)) | 1%
4 | CC(C)C[C@@H]1NC(=O)[C@@H]2CCCN2C(=O)[C@H]2CCCN2C(=O)[C@H](CO)NC(=O)[C@H](CC(=O)O)NC(=O)[C@H](C(C)(C)C)NC(=O)[C@H](CCN)NC(=O)[C@H](Cc2c[nH]c3ccccc23)NC(=O)[C@H](CCN)NC(=O)[C@@H](CCN)NC(=O)[C@H](CCCN)NC(=O)[C@H](CCN)NC(=O)[C@H](Cc2ccc(O)cc2)NC(=O)[C@H](CCN)NC1=O [compound 159] (cyclo(L[Dab]Y[Dab][Orn][dDab][Dab]W[Dab][Tle]DS[dP]P)) | 1%
5 | CC(C)C[C@@H]1NC(=O)[C@@H]2CCCN2C(=O)[C@H]2CCCN2C(=O)[C@H](CO)NC(=O)[C@H](C)NC(=O)[C@H](c2ccccc2)NC(=O)[C@H](CCN)NC(=O)[C@H](Cc2c[nH]c3ccccc23)NC(=O)[C@H](CCN)NC(=O)[C@@H](CCN)NC(=O)[C@H](CCCN)NC(=O)[C@H](CCN)NC(=O)[C@H](Cc2ccc(O)cc2)NC(=O)[C@H](CO)NC1=O [compound 107] (cyclo(LSY[Dab][Orn][dDab][Dab]W[Dab][Phg]AS[dP]P)) | 2%
6 | CC[C@H](C)[C@@H]1NC(=O)[C@@H]2CCCN2C(=O)[C@H]2CCCN2C(=O)[C@H](CO)NC(=O)[C@H](C)NC(=O)[C@H](C(C)(C)C)NC(=O)[C@H](CCN)NC(=O)[C@H](Cc2c[nH]c3ccccc23)NC(=O)[C@H](CCN)NC(=O)[C@@H](CCN)NC(=O)[C@H](CCCN)NC(=O)[C@H](CCN)NC(=O)[C@H](Cc2ccc(O)cc2)NC(=O)[C@H]([C@@H](C)O)NC1=O [compound 84] (cyclo(ITY[Dab][Orn][dDab][Dab]W[Dab][Tle]AS[dP]P)) | 0%
7 | CC(C)C[C@@H]1NC(=O)[C@@H]2CCCN2C(=O)[C@H]2CCCN2C(=O)[C@H](CO)NC(=O)[C@H](C)NC(=O)[C@H](C(C)(C)C)NC(=O)[C@H](CCN)NC(=O)[C@H](Cc2c[nH]c3ccccc23)NC(=O)[C@H](CCN)NC(=O)[C@@H](CCN)NC(=O)[C@H](CCCN)NC(=O)[C@H](CCN)NC(=O)[C@H](Cc2ccc(O)cc2)NC(=O)[C@H](CN)NC1=O [compound 145] (cyclo(L[Dap]Y[Dab][Orn][dDab][Dab]W[Dab][Tle]AS[dP]P)) | 0%
8 | CC(C)C[C@@H]1NC(=O)[C@@H]2CCCN2C(=O)[C@H]2CCCN2C(=O)[C@H](CO)NC(=O)[C@H](CO)NC(=O)[C@H](C(C)(C)C)NC(=O)[C@H](CCN)NC(=O)[C@H](Cc2c[nH]c3ccccc23)NC(=O)[C@H](CCN)NC(=O)[C@@H](CCN)NC(=O)[C@H](CCCN)NC(=O)[C@H](CCN)NC(=O)[C@H](Cc2ccc(O)cc2)NC(=O)[C@H](C)NC1=O [compound 130] (cyclo(LAY[Dab][Orn][dDab][Dab]W[Dab][Tle]SS[dP]P)) | 0.2%
9 | CC(C)C[C@@H]1NC(=O)[C@@H]2CCCN2C(=O)[C@H]2CCCN2C(=O)[C@H](CO)NC(=O)[C@H](C)NC(=O)[C@H](C2CCCCC2)NC(=O)[C@H](CCN)NC(=O)[C@H](Cc2c[nH]c3ccccc23)NC(=O)[C@H](CCN)NC(=O)[C@H](CCN)NC(=O)[C@H](CCCN)NC(=O)[C@H](CCN)NC(=O)[C@H](Cc2ccc(O)cc2)NC(=O)[C@H](CO)NC1=O [compound 94] (cyclo(LSY[Dab][Orn][Dab][Dab]W[Dab][Chg]AS[dP]P)) | 0%
10 | C[C@@H]1NC(=O)[C@H](C(C)(C)C)NC(=O)[C@H](CCN)NC(=O)[C@H](Cc2c[nH]c3ccccc23)NC(=O)[C@H](CCN)NC(=O)[C@@H](CCN)NC(=O)[C@H](CCCN)NC(=O)[C@H](CCN)NC(=O)[C@H](Cc2ccc(O)cc2)NC(=O)[C@H](CN)NC(=O)[C@H](Cc2ccccc2)NC(=O)[C@@H]2CCCN2C(=O)[C@H]2CCCN2C(=O)[C@H](CO)NC1=O [compound 160] (cyclo(F[Dap]Y[Dab][Orn][dDab][Dab]W[Dab][Tle]AS[dP]P)) | 1%
11 | C[C@@H]1NC(=O)[C@H](C(C)(C)C)NC(=O)[C@H](CCN)NC(=O)[C@H](Cc2c[nH]c3ccccc23)NC(=O)[C@H](CCN)NC(=O)[C@@H](CCN)NC(=O)[C@H](CCCN)NC(=O)[C@H](CCN)NC(=O)[C@H](CC2CCCCC2)NC(=O)[C@H](CCO)NC(=O)[C@H](Cc2c[nH]c3ccccc23)NC(=O)[C@@H]2CCCN2C(=O)[C@H]2CCCN2C(=O)[C@H](CO)NC1=O [compound 18] (cyclo(W[hSer][Cha][Dab][Orn][dDab][Dab]W[Dab][Tle]AS[dP]P)) | 3%
12 | CC(C)NCCC[C@@H]1NC(=O)[C@H](CCN)NC(=O)[C@H](CC2CCCCC2)NC(=O)[C@H](CNC(C)C)NC(=O)[C@H](Cc2c[nH]c3ccccc23)NC(=O)[C@@H]2CCCN2C(=O)[C@H]2CCCN2C(=O)[C@H](CO)NC(=O)[C@H](CO)NC(=O)[C@H](C(C)(C)C)NC(=O)[C@H](CCN)NC(=O)[C@H](Cc2c[nH]c3ccccc23)NC(=O)[C@H](CCN)NC(=O)[C@@H](CCN)NC1=O [compound 8] (cyclo(W[X1][Cha][Dab][Orn(iPr)][dDab][Dab]W[Dab][Tle]SS[dP]P)) | 7%
13 | CC[C@H](C)[C@@H]1NC(=O)[C@@H]2CCCN2C(=O)[C@H]2CCCN2C(=O)[C@H](CO)NC(=O)[C@H](C)NC(=O)[C@H](C(C)(C)C)NC(=O)[C@H](CCN)NC(=O)[C@H](Cc2c[nH]c3ccccc23)NC(=O)[C@H](CCN)NC(=O)[C@@H](CCN)NC(=O)[C@H](CCCN)NC(=O)[C@H](CCN)NC(=O)[C@H](Cc2ccc(O)cc2)NC(=O)[C@H](CC(N)=O)NC1=O [compound 85] (cyclo(INY[Dab][Orn][dDab][Dab]W[Dab][Tle]AS[dP]P)) | 0%
14 | C[C@@H]1NC(=O)[C@H](C2CCCCC2)NC(=O)[C@H](CCN)NC(=O)[C@H](Cc2c[nH]c3ccccc23)NC(=O)[C@H](CCN)NC(=O)[C@@H](CCN)NC(=O)[C@H](CCCN)NC(=O)[C@H](CCN)NC(=O)[C@H](Cc2ccc(O)cc2)NC(=O)[C@H](CO)NC(=O)[C@H](Cc2ccc(O)cc2)NC(=O)[C@@H]2CCCN2C(=O)[C@H]2CCCN2C(=O)[C@H](CO)NC1=O [compound 73] (cyclo(YSY[Dab][Orn][dDab][Dab]W[Dab][Chg]AS[dP]P)) | 0%
15 | CC[C@H](C)[C@@H]1NC(=O)[C@@H]2CCCN2C(=O)[C@H]2CCCN2C(=O)[C@H](CO)NC(=O)[C@H](C)NC(=O)[C@H](C(C)(C)C)NC(=O)[C@H](CCN)NC(=O)[C@H](Cc2c[nH]c3ccccc23)NC(=O)[C@H](CCN)NC(=O)[C@@H](CCN)NC(=O)[C@H](CCCN)NC(=O)[C@H](CCN)NC(=O)[C@H](Cc2ccc(O)cc2)NC(=O)[C@H](CN)NC1=O [compound 146] (cyclo(I[Dap]Y[Dab][Orn][dDab][Dab]W[Dab][Tle]AS[dP]P)) | 0%
16 | CCC[C@@H]1NC(=O)[C@@H]2CCCN2C(=O)[C@H]2CCCN2C(=O)[C@H](CO)NC(=O)[C@H](C)NC(=O)[C@H](C(C)(C)C)NC(=O)[C@H](CCN)NC(=O)[C@H](Cc2c[nH]c3ccccc23)NC(=O)[C@H](CCN)NC(=O)[C@@H](CCN)NC(=O)[C@H](CCCN)NC(=O)[C@H](CCN)NC(=O)[C@H](Cc2ccc(F)cc2)NC(=O)[C@H](CO)NC1=O [Ex. 104] (cyclo([Nva]S[Phe(4-F)][Dab][Orn][dDab][Dab]W[Dab][Tle]AS[dP]P)) | 0.5%
17 | CC(C)C[C@@H]1NC(=O)[C@@H]2CCCN2C(=O)[C@H]2CCCN2C(=O)[C@H](CO)NC(=O)[C@H](C)NC(=O)[C@H](C(C)(C)C)NC(=O)[C@H](CCN)NC(=O)[C@H](Cc2c[nH]c3ccccc23)NC(=O)[C@H](CCN)NC(=O)[C@@H](CCN)NC(=O)[C@H](CCCN)NC(=O)[C@H](CN)NC(=O)[C@H](Cc2ccc(O)cc2)NC(=O)[C@H](CO)NC1=O [compound 91] (cyclo(LSY[Dap][Orn][dDab][Dab]W[Dab][Tle]AS[dP]P)) | 0%
18 | CC(C)[C@@H]1NC(=O)[C@@H]2CCCN2C(=O)[C@H]2CCCN2C(=O)[C@H](CO)NC(=O)[C@H](C)NC(=O)[C@H](CC2CCCCC2)NC(=O)[C@H](CCN)NC(=O)[C@H](Cc2c[nH]c3ccccc23)NC(=O)[C@H](CCN)NC(=O)[C@@H](CCN)NC(=O)[C@H](CCCN)NC(=O)[C@H](CCN)NC(=O)[C@H](Cc2ccc(O)cc2)NC(=O)[C@H](CO)NC1=O [compound 92] (cyclo(VSY[Dab][Orn][dDab][Dab]W[Dab][Cha]AS[dP]P)) | 5%
19 | CC(C)C[C@@H]1NC(=O)[C@@H]2CCCN2C(=O)[C@H]2CCCN2C(=O)[C@H](CO)NC(=O)[C@H](C)NC(=O)[C@H](C(C)(C)C)NC(=O)[C@H](CCN)NC(=O)[C@H](Cc2c[nH]c3ccccc23)NC(=O)[C@H](CCN)NC(=O)[C@@H](CCN)NC(=O)[C@H](CCCN)NC(=O)[C@H](CCN)NC(=O)[C@H](CC2CCCCC2)NC(=O)[C@H](CNC(=O)NC(C)C)NC1=O [compound 40] (cyclo(L[Dap]([CO-NHiPr])[Cha][Dab][Orn][dDab][Dab]W[Dab][Tle]AS[dP]P)) | 1%
